Measurements published in patent US20240216410A1, “METHODS AND COMPOSITIONS FOR TREATING CANCER THERAPY-INDUCED NEUTROPENIC FEVER AND/OR GVHD” (BOARD OF REGENTS, THE UNIVERSITY OF TEXAS SYSTEM, priority 2021, published 2024).
“Also recorded” adds a separate entry of the source.

How the values were obtained:
[1] = Murine GVHD model: colonic luminal carbohydrates by acid hydrolysis and IC-MS; assay type: in vivo; settings: day 18; mice with GVHD
Description: BT is known to be a versatile utilizer of a variety of carbohydrate sources derived from the diet, including xylose via the xylose isomerase pathway, as well as host glycans. […] Host mucin glycans are particularly low on the metabolic hierarchy and are typically targeted only after other dietary polysaccharides have been depleted (43). […] Thus, in some embodiments, levels of soluble carbohydrates in the colonic lumen may be perturbed by meropenem treatment, given that it is shown herein that meropenem depletes the abundance of commensal Clostridia, which function to metabolize dietary fibers and starches (45). Using acid hydrolysis followed by ion chromatography-mass spectrometry (IC-MS), levels of monosaccharide subunits comprising soluble luminal polysaccharides were characterized in the colon of mice.
Carbohydrates analysis by IC-MS. To determine the relative abundance of carbohydrates in mouse feces samples, extracts were prepared and analyzed by ultra-HRMS. Fecal pellets were homogenized with a […]® Tissue Homogenizer. Metabolites were extracted using 1 mL ice-cold 80/20 (v/v) methanol/water. Extracts were centrifuged at 17,000 g for 5 min at 4° C., and supernatants were transferred to clean tubes, followed by evaporation to dryness under nitrogen. Dried extracts were reconstituted in deionized water, and 5 μL was injected for analysis by IC-MS. […]

intestinal microbiota = assay: Murine GVHD model: fecal microbiome composition (16S rRNA sequencing) and bacterial density (qPCR); assay type: in vivo, mice
Protocol: Effects of meropenem treatment on the composition of the intestinal microbiota of allo-HSCT mice were also examined (FIG. 15F).
Sequencing of 16S rRNA gene amplicons. Fecal samples from patients and mice were weighed before DNA isolation. In brief, genomic DNA was isolated using the QIAAMP® DNA mini kit (51306, QIAGEN®) according to the manufacturer's protocol that was modified to include an intensive bead-beating lysis step. The V4 region of 16S rRNA gene was amplified by PCR from 100 ng of each of extracted and purified genomic DNA using 515 forward and 806 reverse primer pairs (59). The quality and quantity of the barcoded amplicons were assessed on an Agilent 4200 TapeStation system (Agilent) and QUBIT™ Fluorometer (THERMO FISHER […]™), and libraries were prepared after pooling at equimolar ratios. The final libraries were purified using […]® gel extraction kit (28706X4, QIAGEN®) and sequenced with a 2×250 base pair paired-end protocol on the […]® MISEQ™ platform.
Microbiome data analysis. Sequencing data from paired-end reads were de-multiplexed using QIIME 2 (60). Merging of paired-end reads, dereplicating, and length filtering was performed using VSEARCH 2.17.1 (61). Following de-noising and chimera calling using the unoise3 command (62), unique sequences were taxonomically classified with mothur (63) using the Silva database (64) version 138. Weighted UniFrac distances (65) were determined using QIIME 2, visualized using principal coordinate analysis, and evaluated for statistical significance using permutational multivariate analysis of variance (PERMANOVA) testing. For differential abundance analysis, abundances of sequences belonging to taxonomical groups were included for analysis using the Mann-Whitney U test and adjusted for multiple comparisons using the method of Benjamini and Hochberg. Paired samples were analyzed using the Wilcoxon signed rank test with adjustment for multiple comparisons.
Quantification of fecal bacterial density. Genomic DNA was isolated from stool as described above. qPCR was performed as previously described (66). In brief, 16S rRNA gene sequences were amplified from total fecal DNA using the primers 926F (5′-[…]-3′, where K is a G or a T; SEQ ID NO:2) and 1062R (5′-[…]-3′, where R is an A or a G; SEQ ID NO:3). Real-time PCR were carried out in 96-well optical plates on QUANTSTUDIO™ Flex 6 RT PCR (APPLIED BIOSYSTEMS™) and KAPA SYBR® FAST Master Mix (Roche). The PCR conditions included one initial denaturing step of 10 min at 95° C. and 40 cycles of 95° C. for 20 sec and 60 °C for 1 min. Melting-curve analysis was performed after amplification. To determined bacterial density, a plasmid with a 16S rRNA gene of a murine Blautia isolate was generated in the pCR4 backbone and used as a standard.

Question: For `C[C@@H](O)[C@H]1C(=O)N2C(C(=O)O)=C(S[C@@H]3CN[C@H](C(=O)N(C)C)C3)[C@H](C)[C@H]12` [meropenem], which “concentrations of soluble luminal polysaccharide monosaccharide subunits” value [1] is on record?
Answer: The value was “significantly lower concentrations of arabinose- and xylose-derived polysaccharides”.

Question: What about the “abundance of murine BT” value (intestinal microbiota; allo-HSCT mice, days 0, 7, 14, 21) of the same compound?
Answer: The value was “suppressed by meropenem-supplemented drinking water but quickly expanded after cessation of meropenem therapy; also recorded: higher abundances of BT”.

Question: And the “abundance of Clostridia” value (intestinal microbiota; allogeneic mice, days 0, 7, 14, 21)?
Answer: Its value is “significantly decreased; also recorded: depleted”.

Question: What about the fecal bacterial density (intestinal microbiota; day 14 after allo-HSCT, during meropenem treatment) of the same compound?
Answer: The fecal bacterial density was “significantly decreased bacterial density”.

Question: What about the fecal bacterial density (intestinal microbiota; day 21, 6 days after stopping meropenem) of the same compound?
Answer: Its fecal bacterial density is “recovered to a level similar to that of untreated syngeneic and allogeneic mice”.

Question: And the “alpha diversity (inverse Simpson index)” value (intestinal microbiota; fecal samples day 21)?
Answer: Its value is “significantly reduced”.

Question: And the bacterial genera depleted (intestinal microbiota; fecal samples day 21)?
Answer: The bacterial genera depleted was “many genera were depleted, including Blautia, Lachnoclostridium, and other members of Lachnospiraceae”.

Question: What about the “bacterial genera with increased abundance” value (intestinal microbiota; fecal samples day 21) of the same compound?
Answer: Its value is “significantly higher abundances of bacteria from several genera, including most substantially Bacteroides, as well as Enterococcus, Erysipelatoclostridium, Bifidobacterium and Akkermansia”.
